The target in one data set is T1, CYP2C9 (Homo sapiens, UniProt P11712).
T1 construct: purchased Reaction Biology Corporation; host or cells: CYP cDNA baculovirus expression systems
As to the kind of experiment: CYP450 inhibition assay. In kind it is in vitro ADME. To be noted: human recombinant enzyme.

Data set [1] concerns human A549 tumour xenografts. As to the kind of experiment: Human A549 tumour xenograft model. In kind it is in vivo. Here is the method:
[…]. Xenografts were implanted by subcutaneous injection of A549 cells and then treatment with various dosages of 3b (0, 5, 10, 20 mg/kg by intraperitoneal injection once daily for 21 days) was initiated when tumour size was 10–20 mm^3. […] Moreover, tumour suppression continued for an additional 10 days after treatment was suspended.
The procedure for establishing tumour xenografts and the dosing of 3b were carried out in accordance with the National Taiwan University College of Medicine Laboratory Animal Centre ([…]) care and use committee. Female nude mice (BALB/cAnN.Cg-Foxn1nu/CrlNarl, 6–8 weeks old) were purchased from the National Laboratory Animal Centre (Taiwan). Mice were implanted subcutaneously in the right flank with 1 × 10^7 A549 cells (human NSCLC, in 1:1 PBS/Geltrex, 200 μL). Treatments were initiated when tumours were 10–20 mm^3 and continued for 21 consecutive days. Mice were randomly assigned to cohorts (n = 5 per group). Compound 3b (10 mg/kg) or vehicle (PBS + 5% DMSO + 10% Pharmasolve) was administered once daily (qd) via intraperitoneal (i.p.) injection. Tumour volume and body weight were assessed daily for 31 days from initiation of treatment. Calliper measurements of tumours were converted to mean tumour volume using the formula: 0.5 × (length × width[2]).
On the technique in general: A xenograft is tissue or cells of one species grown in another, often human tumour cells in immunodeficient mice.

A further data set deals with T2, c-Src (Homo sapiens, UniProt P12931).
T2 construct: purchased Reaction Biology Corporation
As to the kind of experiment: RTK in vitro enzymatic assay. The settings on record: 20 μM ATP. In kind it is biochemical.

A further data set has as its system A549. Kind of data set: SRB antiproliferation assay. To be noted: Homo sapiens, 48 h, read-out: Antiproliferative activity (IC50) A549. In kind it is cell-based.
The target of the next data set is T3, CYP2D6 (Homo sapiens, UniProt P10635).
T3 construct: purchased Reaction Biology Corporation; host or cells: CYP cDNA baculovirus expression systems
As to the kind of experiment: CYP450 inhibition assay. In kind it is in vitro ADME. To be noted: human recombinant enzyme.

A further data set deals with T4, HDAC6 (Homo sapiens, UniProt Q9UBN7).
T4 construct: purchased Reaction Biology Corporation; host or cells: baculovirus expression system in SF9 cells
T4 sequence (Q9UBN7 1-1215): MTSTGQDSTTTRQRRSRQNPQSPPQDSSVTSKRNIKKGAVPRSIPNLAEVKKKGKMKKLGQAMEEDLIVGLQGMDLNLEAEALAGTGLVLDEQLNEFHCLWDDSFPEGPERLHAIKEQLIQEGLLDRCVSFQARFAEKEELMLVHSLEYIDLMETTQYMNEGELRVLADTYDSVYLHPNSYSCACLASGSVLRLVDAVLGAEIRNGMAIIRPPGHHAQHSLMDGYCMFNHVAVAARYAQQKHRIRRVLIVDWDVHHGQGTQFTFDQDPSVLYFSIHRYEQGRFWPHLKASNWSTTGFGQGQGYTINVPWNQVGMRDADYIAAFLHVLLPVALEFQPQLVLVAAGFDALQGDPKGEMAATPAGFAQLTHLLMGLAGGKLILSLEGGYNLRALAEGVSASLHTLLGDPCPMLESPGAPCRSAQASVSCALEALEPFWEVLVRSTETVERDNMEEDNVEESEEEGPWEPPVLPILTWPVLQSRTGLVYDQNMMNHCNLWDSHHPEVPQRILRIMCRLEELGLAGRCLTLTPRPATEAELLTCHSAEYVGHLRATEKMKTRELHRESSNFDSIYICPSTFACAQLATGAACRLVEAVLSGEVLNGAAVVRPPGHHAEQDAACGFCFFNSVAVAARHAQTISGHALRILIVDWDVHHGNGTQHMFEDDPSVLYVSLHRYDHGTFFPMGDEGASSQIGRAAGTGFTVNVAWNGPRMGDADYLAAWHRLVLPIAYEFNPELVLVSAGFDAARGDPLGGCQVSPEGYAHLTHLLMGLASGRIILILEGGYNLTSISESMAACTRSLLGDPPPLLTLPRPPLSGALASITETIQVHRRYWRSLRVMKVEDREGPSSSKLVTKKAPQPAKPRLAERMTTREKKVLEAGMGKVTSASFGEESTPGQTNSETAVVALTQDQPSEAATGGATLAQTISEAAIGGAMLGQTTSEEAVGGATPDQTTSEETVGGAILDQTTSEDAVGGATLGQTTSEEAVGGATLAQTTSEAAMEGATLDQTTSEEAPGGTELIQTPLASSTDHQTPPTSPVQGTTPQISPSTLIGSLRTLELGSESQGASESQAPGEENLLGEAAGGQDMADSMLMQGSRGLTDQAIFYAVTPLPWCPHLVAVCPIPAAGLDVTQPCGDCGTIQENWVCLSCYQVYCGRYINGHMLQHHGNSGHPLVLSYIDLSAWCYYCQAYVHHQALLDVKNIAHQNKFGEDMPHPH
As to the kind of experiment: HDAC inhibition assay (fluorogenic peptide, Reaction Biology). In kind it is biochemical. To be noted: tested once, ten-dose starting at 30 µM.

For data set [2], the system named is acetylated histone H3, a substrate of class I HDAC. As to the kind of experiment: Western blot of acetylated histone H3 in H2228 cells. In kind it is cell-based, human. To be noted: 6 h, 3b 2 µM. An excerpt:
Figure 4. Effect of test compounds on H2228 cells. […] (A) Western blots of phosphorylated tyrosine residue 1640 on ALK as well as acetylated (Ac) α-tubulin and histone H3 with their corresponding total proteins for normalisation. GAPDH was used as a loading control. (B) Quantification of western blotting results using Image J. Error bars indicate ± S.D.E. *p-Value ≤ 0.05, **p-value ≤ 0.01, ***p-value ≤ 0.001.
Treated cells were washed three times with ice-cold phosphate-buffered saline and lysed in lysis buffer containing 100 mM Tris-HCl, 12 mM sodium deoxycholate, 12 mM sodium lauroylsarcosinate, and protease inhibitor cocktail (BioTools). Cells were heated in lysis buffer at 95 °C for 5 min and then the cell membrane was broken up by sonication (Bioruptor). Cellular debris and unbroken cells were removed by centrifugation (12,500 × g for 30 min, 4 °C). Protein concentration was determined using the bicinchoninic acid assay (Thermo). Cell extracts (20 μg) were resolved by 12% sodium dodecyl sulfate-polyacrylamide gel electrophoresis (SDS-PAGE), transferred to PVDF membranes, and probed separately with antibodies for Ac-histone H3, Ac-α-tubulin, histone H3, α-tubulin, HDAC1, HDAC6, HDAC8 and GAPDH. […] Antibody signals were detected using an enhanced chemiluminescence system.
In general terms: Immunoblotting shows a protein as a band on a membrane.

The target of a further data set is T5, IGF1R (Homo sapiens, UniProt P08069).
T5 construct: purchased Reaction Biology Corporation
As to the kind of experiment: RTK in vitro enzymatic assay. In kind it is biochemical. The settings on record: 20 μM ATP.

“Also recorded” adds a separate entry of the source.

T5 sequence (P08069 31-1367): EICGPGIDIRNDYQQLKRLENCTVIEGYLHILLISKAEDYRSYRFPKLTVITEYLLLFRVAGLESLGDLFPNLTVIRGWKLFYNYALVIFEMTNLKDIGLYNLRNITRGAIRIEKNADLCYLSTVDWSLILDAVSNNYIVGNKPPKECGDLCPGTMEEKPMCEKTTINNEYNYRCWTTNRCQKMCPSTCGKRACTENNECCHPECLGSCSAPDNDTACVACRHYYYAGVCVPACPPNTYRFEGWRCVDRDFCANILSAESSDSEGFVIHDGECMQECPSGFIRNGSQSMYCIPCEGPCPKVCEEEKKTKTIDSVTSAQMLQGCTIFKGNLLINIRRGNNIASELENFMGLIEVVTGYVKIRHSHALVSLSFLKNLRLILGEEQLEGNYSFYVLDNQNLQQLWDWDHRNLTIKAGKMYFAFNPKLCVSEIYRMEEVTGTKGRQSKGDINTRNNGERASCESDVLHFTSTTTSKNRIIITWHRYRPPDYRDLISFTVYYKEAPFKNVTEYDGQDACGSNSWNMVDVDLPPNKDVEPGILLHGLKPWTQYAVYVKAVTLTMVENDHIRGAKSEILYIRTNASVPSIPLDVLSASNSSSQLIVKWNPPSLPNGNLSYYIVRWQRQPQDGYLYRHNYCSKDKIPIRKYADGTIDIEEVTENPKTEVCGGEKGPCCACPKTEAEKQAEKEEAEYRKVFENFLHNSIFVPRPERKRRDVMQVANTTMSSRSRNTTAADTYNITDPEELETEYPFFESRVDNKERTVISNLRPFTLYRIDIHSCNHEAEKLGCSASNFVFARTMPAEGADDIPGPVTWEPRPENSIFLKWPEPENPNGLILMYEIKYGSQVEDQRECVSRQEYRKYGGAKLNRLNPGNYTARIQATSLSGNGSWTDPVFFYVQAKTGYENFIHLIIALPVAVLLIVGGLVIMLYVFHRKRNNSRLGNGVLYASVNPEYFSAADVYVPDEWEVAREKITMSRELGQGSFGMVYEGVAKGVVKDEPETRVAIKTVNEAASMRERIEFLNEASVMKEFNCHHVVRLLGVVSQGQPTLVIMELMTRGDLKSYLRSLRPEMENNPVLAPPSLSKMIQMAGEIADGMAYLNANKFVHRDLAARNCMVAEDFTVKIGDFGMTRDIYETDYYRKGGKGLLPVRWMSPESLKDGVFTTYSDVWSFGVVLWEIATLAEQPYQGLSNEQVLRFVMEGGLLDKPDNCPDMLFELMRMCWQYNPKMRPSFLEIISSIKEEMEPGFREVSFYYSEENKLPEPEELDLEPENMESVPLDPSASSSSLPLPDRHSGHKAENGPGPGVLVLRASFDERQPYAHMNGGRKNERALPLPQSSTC
T1 sequence (P11712 whole entry): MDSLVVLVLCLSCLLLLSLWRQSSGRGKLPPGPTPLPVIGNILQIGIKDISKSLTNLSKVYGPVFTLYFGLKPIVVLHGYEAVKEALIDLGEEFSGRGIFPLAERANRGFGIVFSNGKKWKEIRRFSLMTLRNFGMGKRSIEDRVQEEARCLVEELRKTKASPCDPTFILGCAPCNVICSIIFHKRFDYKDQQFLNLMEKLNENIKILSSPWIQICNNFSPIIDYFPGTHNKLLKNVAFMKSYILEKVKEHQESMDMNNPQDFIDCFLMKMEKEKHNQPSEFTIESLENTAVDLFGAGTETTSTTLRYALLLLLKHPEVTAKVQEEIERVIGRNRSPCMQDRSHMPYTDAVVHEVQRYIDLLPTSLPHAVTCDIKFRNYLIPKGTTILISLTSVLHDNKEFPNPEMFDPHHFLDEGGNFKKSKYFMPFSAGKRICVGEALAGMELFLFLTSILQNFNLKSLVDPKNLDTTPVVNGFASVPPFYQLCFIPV
T3 sequence (P10635 whole entry): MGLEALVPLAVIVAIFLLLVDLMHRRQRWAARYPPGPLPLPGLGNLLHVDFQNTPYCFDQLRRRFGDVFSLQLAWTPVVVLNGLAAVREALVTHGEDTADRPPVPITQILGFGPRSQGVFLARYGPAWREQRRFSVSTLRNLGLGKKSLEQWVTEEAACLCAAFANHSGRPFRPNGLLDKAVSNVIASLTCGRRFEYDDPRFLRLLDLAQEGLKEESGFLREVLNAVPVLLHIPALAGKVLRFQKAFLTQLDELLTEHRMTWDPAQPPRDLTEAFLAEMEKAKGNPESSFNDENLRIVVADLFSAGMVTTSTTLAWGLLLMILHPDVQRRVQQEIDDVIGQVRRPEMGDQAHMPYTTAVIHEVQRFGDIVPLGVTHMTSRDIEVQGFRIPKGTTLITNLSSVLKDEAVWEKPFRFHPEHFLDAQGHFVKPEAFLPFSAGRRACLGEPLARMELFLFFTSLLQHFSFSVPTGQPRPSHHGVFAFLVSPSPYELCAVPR
T2 sequence (P12931 whole entry): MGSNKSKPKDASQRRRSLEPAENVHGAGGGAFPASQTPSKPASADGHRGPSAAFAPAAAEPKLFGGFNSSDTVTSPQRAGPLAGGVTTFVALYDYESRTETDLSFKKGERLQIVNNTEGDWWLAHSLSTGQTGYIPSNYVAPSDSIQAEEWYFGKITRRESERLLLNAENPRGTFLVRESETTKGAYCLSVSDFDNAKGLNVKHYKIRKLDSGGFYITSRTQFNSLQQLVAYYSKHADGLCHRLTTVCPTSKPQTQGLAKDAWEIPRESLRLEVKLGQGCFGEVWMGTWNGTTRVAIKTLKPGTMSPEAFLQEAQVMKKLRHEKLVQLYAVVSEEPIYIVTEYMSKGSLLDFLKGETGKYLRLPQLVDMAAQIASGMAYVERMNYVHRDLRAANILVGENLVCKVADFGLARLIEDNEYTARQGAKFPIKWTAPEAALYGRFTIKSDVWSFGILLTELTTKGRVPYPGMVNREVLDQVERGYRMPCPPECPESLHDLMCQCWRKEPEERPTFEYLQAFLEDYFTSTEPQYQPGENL

Consider `CC(C)NC(=O)C1CCC(n2c(=NC(=O)c3ccccc3)[nH]c3cc(C=CC(=O)NO)ccc32)CC1` [Compound 3b, (E)-N-(5-((E)-3-(Hydroxyamino)-3-oxoprop-1-en-1-yl)-1-((1S,4S)-4-(isopropylcarbamoyl)cyclohexyl)-1H-benzo[d]imidazol-2(3H)-ylidene)benzamide], for which the IC50 (commonly the concentration at which inhibition is half-maximal) at CYP2C9 was 2650 nM; against c-Src it was 3380 nM; in the data set on A549, 330 ± 30 nM; on CYP2D6 it was greater than 10000 nM; against HDAC6 it was 1030 nM; against IGF1R, 4840 nM. The “effect on tumour volume” value in data set [1] (5 mg/kg i.p. once daily for 21 days) is on record as “no significant effect”. Also, the “decrease in mean tumour volume” value in data set [1] (10 mg/kg i.p. once daily for 21 days, day 21 of treatment) was 68%; in data set [1] (10 mg/kg i.p. once daily for 21 days, day 31 (10 days after treatment suspended)), 80%; in data set [1] (20 mg/kg i.p. once daily for 21 days, day 21 of treatment), 85%; in data set [1] (20 mg/kg i.p. once daily for 21 days, day 31 (10 days after treatment suspended)), 86%. Moreover, the mean body weight entry in data set [1] (5, 10, 20 mg/kg i.p. once daily for 21 days, any treatment group) is recorded as “negligible effect; also recorded: not significantly affected”. The “acetylated histone H3 level” value in data set [2] was “slightly increased”.

The values are drawn from paper PMC10930102 (Journal of Enzyme Inhibition and Medicinal Chemistry, 2024).
